We go through 15 compounds from patent publication US20050154232A1, “Nitrosodiphenylamine derivatives and their pharmaceutical use against oxidative stress pathologies” (priority 2002, published 2005).

Series [1] is described as follows: Spontaneous release of nitric oxide, titrated as nitrites+nitrates (Griess reagent, nitrate reductase). Particulars: nitrites+nitrates released; test product 150 μM, 4 hours at 37° C., pH 7.5 PBS buffer; compounds of formula I. The method, then:
A solution of a compound of the formula I of the invention spontaneously releases nitric oxide. The nitrite ions resulting therefrom are titrated by colorimetry by means of a specific reagent (Griess). To take account of any release of nitrate ions in addition to the nitrites, bacterial nitrate reductase is added to the reaction medium to reduce the nitrate ions formed.
The reactions and measurements are carried out in transparent 96-well plates. The test products are dissolved at the time of use, at a concentration of 3 mM in dimethyl sulfoxide. 95 μl of a reagent containing nitrate reductase (0.18 U/ml in 100 mM pH 7.5 PBS buffer, 210 μM β-NADPH, 5 μM FAD) and 5 μl of the solution of the test product (final concentration of 150 μM) are then added to each well. After stirring, the mixtures are incubated for 4 hours at 37° C. The reaction is then stopped by adding 100 μl of Griess' reagent (Sigma G4410). The resulting mixture is stirred for 5 min at room temperature, and the optical density is then read at 540 nm. This value is proportional to the concentration of nitrites+nitrates in the medium. A calibration range is made for each plate, using NaNO2.
The results are expressed as μmol/l (μM) of nitrites+nitrates released in Table A for some of the compounds of the formula I given as examples below.
Background: The Griess reaction detects nitrite, a stable product of nitric oxide.

Series [2] relates to Human LDLs. The series is described as follows: Oxidation of human LDL by cupric ions (fluorescence), antioxidant effect. The class given is biochemical. The procedure: Human LDLs placed in aqueous solution in the presence of cupric ions, become spontaneously oxidised on their protein component, apolipoprotein-B. This oxidation makes the particle fluorescent, which is exploited to measure a pharmacological effect.
The reactions and measurements are carried out in black 96-well plates. 10 μl of a solution of the test product dissolved in dimethyl sulfoxide are first mixed with 170 μl of a solution of human LDL at a concentration of 120 μg/ml and 20 μl of 100 μM CuCl2. After stirring, the mixture is incubated for 2 hours at 37° C., and a first fluorescence reading is taken (excitation at 360 nm, reading at 460 nm). The mixture is then incubated for a further 22 hours, to take a second reading under the same conditions. The difference is proportionately smaller the greater the antioxidant power of the test product. Probucol is used as reference product at a concentration of 10 μM.
The concentrations that inhibit 50% (IC50) of the oxidation are prepared from three concentrations of the test product. They are given in Table B below for some of the compounds of the formula I given as examples below.

Setting [3] is: human LDL + CuCl2, fluorescence 2 h vs 24 h at 37° C., compounds of formula I (Table B).
[4] abbreviates: oxidation of human lipoproteins, compounds of formula II (Table C).

The term IC50 denotes the concentration at which inhibition is half-maximal. As for `COc1ccc(N(N=O)c2ccc(C(=O)Nc3ccncc3)cc2)cc1` [Example 15b], the Nitrites-Nitrates in series [1] was 82 µM. Besides, the IC50 in series [2] (setting [3]) amounted to 4.8 µM. `COc1ccc(Nc2ccc(C(=O)Nc3cccc([N+](=O)[O-])c3)cc2)cc1` [Example 8a]: the IC50 in series [2] (setting [4]) came to 10 µM. In series [2] (setting [4]), `COc1ccc(Nc2ccc(S(=O)(=O)Nc3cccnc3)cc2)cc1` [Example 136a] yielded an IC50 of 19.8 µM. For `COc1ccc(N(N=O)c2ccc(C(=O)NCCN3CCN(C)CC3)cc2)cc1` [Example 6b, 4-[1-(4-Methoxyphenyl)-2-oxohydrazino]-N-[2-(4-methylpiperazin-1-yl)-ethyl]benzamide], the Nitrites-Nitrates in series [1] worked out at 58 µM. On to `COc1ccc(N(N=O)c2cccc(C(=O)Nc3cccnc3)c2)cc1` [Example 4b, 3-[1-(4-Methoxyphenyl)-2-oxohydrazino]-N-pyrid-3-ylbenzamide], for which, in series [1], the Nitrites-Nitrates came to 70 µM. Also, the half-inhibitory concentration (IC50) in series [2] (setting [3]) came to 12.7 µM.

With `COc1ccc(Nc2cccc(C(=O)Nc3ccncc3)c2)cc1` [Example 135a], the half-maximal inhibitory concentration (IC50) in series [2] (setting [4]) stood at 7.5 µM. On the same count and under the same terms, the same measure for `COc1ccc(Nc2cccc(C(=O)Nc3cccnc3)c2)cc1` [Example 4a, 3-[(4-Methoxyphenyl)amino]-N-pyrid-3-ylbenzamide]: 9.1 µM.

As to `COc1ccc(Nc2ccc(C(=O)Nc3ccccc3)cc2)cc1` [Example 33a], the IC50 in series [2] (setting [4]) stood at 12.9 µM.

For the compound `COc1ccc(N(N=O)c2ccc(C(=O)Nc3ccccn3)cc2)cc1` [Example 14b, 4-[1-(4-methoxyphenyl)-2-oxohydrazino]-N-pyrid-2-ylbenzamide], in series [1], the Nitrites-Nitrates is 90 µM. The term melting point denotes the temperature of the solid-liquid transition. Compound `COc1ccc(N(N=O)c2ccc(C(=O)Nc3cccnc3)cc2)cc1` [Example 1b, 4-[1-(4-Methoxyphenyl)-2-oxohydrazino]-N-pyrid-3-ylbenzamide] gave a melting point of 167 to 169 °C. Moreover, the Nitrites-Nitrates in series [1] is 63 µM. Moreover, the IC50 in series [2] (setting [3]) worked out at 4.6 µM. Turning to `COc1ccc(Nc2cccc(C(=O)NCc3cccnc3)c2)cc1` [Example 132a], 7.7 µM corresponded to half-maximal inhibition in series [2] (setting [4]) (IC50). Turning to `COc1ccc(N(N=O)c2cccc(C(=O)NCc3cccnc3)c2)cc1` [Example 132b], in series [1], the Nitrites-Nitrates amounted to 82 µM. Also, in series [2] (setting [3]), the IC50 is 9.3 µM. For the compound `COc1ccc(Nc2cccc(C(=O)Nc3ccccn3)c2)cc1` [Example 134a], the IC50 in series [2] (setting [4]) came out at 4.5 µM. Regarding `COc1ccc(N(N=O)c2cccc(C(=O)Nc3ccncc3)c2)cc1` [Example 135b], the Nitrites-Nitrates in series [1] is 75 µM. Besides, the IC50 in series [2] (setting [3]) came out at 8.6 µM. As to `O=NN(c1ccc(C(=O)Nc2cccnc2)cc1)c1ccc([N+](=O)[O-])cc1` [Example 5b, 4-[1-(4-Nitrophenyl)-2-oxohydrazino]-N-pyrid-3-ylbenzamide], in series [1], the Nitrites-Nitrates amounted to 47 µM.
